{"source": "ChEMBL document CHEMBL4808178", "about": "(J Med Chem, 2021)", "tested_on": "HCT-116", "assay": "Induction of apoptosis in human HCT116 cells assessed as late apoptotic cells at 20 uM after 24 hrs by annexin V-FITC/propidium iodide staining based flow cytometry (reference value: 5.1%)", "assay_type": "functional", "data": [{"smiles": "O=C(NCCO)c1ccc2c(c1)nc(Nc1cccc(Cl)c1)c1ccncc12", "values": [{"measurement": "Activity", "value": 32.9, "unit": "%"}]}]}
